Assays:
[1] = Induction of anti-CD3/CD28 antibodies-stimulated human T cell activation at 4 uM assessed fold increase in IL-2 secretion measured by ELISA assay; type: functional, T cell line
[2] = Induction of anti-CD3/CD28 antibodies-stimulated human T cell activation at 0.3 uM assessed fold increase in IL-2 secretion measured by ELISA assay; type: functional, T cell line
[3] = Induction of anti-CD3 antibodies-stimulated human T cell activation at 8 uM assessed fold increase in IL-2 secretion measured by ELISA assay; type: functional, T cell line; note: reference of the scale not given here
[4] = Induction of anti-CD3 antibodies-stimulated human T cell activation at 1 uM assessed fold increase in IL-2 secretion measured by ELISA assay; type: functional, T cell line; note: reference of the scale not given here
[5] = Induction of anti-CD3/CD28 antibodies-stimulated human T cell activation at 4 uM assessed fold increase in CD25 expression measured by ELISA assay; type: functional, T cell line
[6] = Induction of anti-CD3/CD28 antibodies-stimulated human T cell activation at 1 uM assessed fold increase in CD25 expression measured by ELISA assay; type: functional, T cell line
[7] = Induction of anti-CD3 antibodies-stimulated human T cell activation at 1 uM assessed fold increase in CD25 expression measured by ELISA assay; type: functional, T cell line; note: reference of the scale not given here
[8] = Induction of anti-CD3/CD28 antibodies-stimulated human CD4+ T cell activation at 1.11 uM assessed fold increase in CD69 expression measured by flow cytometry analysis; type: functional, T cell line
[9] = Induction of anti-CD3/CD28 antibodies-stimulated human CD4+ T cell activation at 10 uM assessed fold increase in cell proliferation measured by flow cytometry analysis; type: functional, T cell line
[10] = Induction of anti-CD3/CD28 antibodies-stimulated human CD8+ T cell activation at 10 uM assessed fold increase in CD69 expression measured by flow cytometry analysis; type: functional, T cell line
[11] = Induction of anti-CD3/CD28 antibodies-stimulated human CD8+ T cell activation at 10 uM assessed fold increase in cell proliferation measured by flow cytometry analysis; type: functional, T cell line
[12] = Induction of anti-CD3/CD28 antibodies-stimulated human CD8+ T cell activation at 1.11 uM assessed fold increase in cell proliferation measured by flow cytometry analysis; type: functional, T cell line
[13] = Induction of anti-CD3 antibodies-stimulated human CD4+ T cell activation at 10 uM assessed fold increase in CD69 expression measured by flow cytometry analysis; type: functional, T cell line; note: reference of the scale not given here
[14] = Induction of anti-CD3 antibodies-stimulated human CD4+ T cell activation at 1.11 uM assessed fold increase in CD69 expression measured by flow cytometry analysis; type: functional, T cell line; note: reference of the scale not given here
[15] = Induction of anti-CD3 antibodies-stimulated human CD8+ T cell activation at 10 uM assessed fold increase in cell proliferation measured by flow cytometry analysis; type: functional, T cell line; note: reference of the scale not given here
[16] = Induction of anti-CD3 antibodies-stimulated human CD8+ T cell activation at 1.11 uM assessed fold increase in cell proliferation measured by flow cytometry analysis; type: functional, T cell line; note: reference of the scale not given here
[17] = Induction of anti-CD3/CD28 antibodies-stimulated human T cell activation at 10 uM assessed fold increase in GM-CSF secretion measured by ELISA assay; type: functional, T cell line
[18] = Induction of anti-CD3/CD28 antibodies-stimulated human T cell activation at 1.11 uM assessed fold increase in GM-CSF secretion measured by ELISA assay; type: functional, T cell line
[19] = Induction of anti-CD3 antibodies-stimulated human T cell activation at 10 uM assessed fold increase in GM-CSF secretion measured by ELISA assay; type: functional, T cell line; note: reference of the scale not given here
[20] = Induction of anti-CD3/CD28 antibodies-stimulated human T cell activation at 10 uM assessed fold increase in TNF-alpha secretion measured by ELISA assay; type: functional, T cell line
[21] = Induction of anti-CD3/CD28 antibodies-stimulated human T cell activation at 1.11 uM assessed fold increase in TNF-alpha secretion measured by ELISA assay; type: functional, T cell line
[22] = Induction of anti-CD3 antibodies-stimulated human T cell activation at 10 uM assessed fold increase in TNF-alpha secretion measured by ELISA assay; type: functional, T cell line; note: reference of the scale not given here
[23] = Induction of anti-CD3/CD28 antibodies-stimulated human T cell activation at 10 uM assessed fold increase in IFN-gamma secretion measured by ELISA assay; type: functional, T cell line
[24] = Induction of anti-CD3/CD28 antibodies-stimulated human T cell activation at 1.11 uM assessed fold increase in IFN-gamma secretion measured by ELISA assay; type: functional, T cell line
[25] = Induction of anti-CD3 antibodies-stimulated human T cell activation at 1.11 uM assessed fold increase in IFN-gamma secretion measured by ELISA assay; type: functional, T cell line; note: reference of the scale not given here
[26] = Induction of allogenic human T cell activation at 10 uM assessed fold increase in cell proliferation; type: functional, T cell line
[27] = Induction of allogenic human T cell activation at 3 uM assessed fold increase in cell proliferation; type: functional, T cell line
[28] = Induction of anti-CD3 antibodies-stimulated human exhausted T cell activation assessed fold increase in IFN-gamma secretion measured by ELISA assay; type: functional, T cell line; note: reference of the scale not given here
[29] = Induction of anti-CD3 antibodies-stimulated human exhausted T cell activation assessed fold increase in GM-CSF secretion measured by ELISA assay; type: functional, T cell line; note: reference of the scale not given here
[30] = Induction of anti-CD3 antibodies-stimulated human exhausted CD4+ T cell activation assessed fold increase in CTLA4 expression measured by flow cytometry analysis; type: functional, T cell line; note: reference of the scale not given here
[31] = Induction of anti-CD3/CD28 antibodies-stimulated human anergic T cell activation at 1.11 uM assessed fold increase in IFN-gamma secretion measured by ELISA assay; type: functional, T cell line
[32] = Induction of anti-CD3/CD28 antibodies-stimulated human anergic T cell activation at 0.37 uM assessed fold increase in IFN-gamma secretion measured by ELISA assay; type: functional, T cell line
B cell = assay: Induction of anti-IgM-stimulated human CD20+ B cell activation at 10 to 1000 uM assessed as increase in CD69 expression measured as mean fluorescence intensity AUC by flow cytometry analysis; type: functional, cell-based; conditions: dose 10-1000 µM
[33] = Induction of activation of human CD56+ CD3- NK cells co-cultured with human K562 cells in 1:1 ratio and assessed as increase in IFN-gamma secretion at 10 uM measured by ELISA assay; type: functional, Natural killer cell
[34] = Induction of activation of human CD56+ CD3- NK cells co-cultured with human K562 cells in 1:1 ratio and assessed as increase in TNF-alpha secretion at 10 uM measured by ELISA assay; type: functional, Natural killer cell
[35] = Induction of activation of human CD56+ CD3- NK cells co-cultured with human K562 cells in 1:1 ratio and assessed as increase in IFN-gamma secretion at 2.5 uM measured by ELISA assay; type: functional, Natural killer cell
[36] = Induction of activation of human CD56+ CD3- NK cells co-cultured with human K562 cells in 1:1 ratio and assessed as increase in TNF-alpha secretion at 2.5 uM measured by ELISA assay; type: functional, Natural killer cell
[37] = Induction of activation of human CD56+ CD3- NK cells co-cultured with human K562 cells in 1:1 ratio and assessed as increase in TNF-alpha secretion at 0.625 uM measured by ELISA assay; type: functional, Natural killer cell

SMILES	fold change (FC) [1]	fold change (FC) [2]	fold change (FC) [3]	fold change (FC) [4]	fold change (FC) [5]	fold change (FC) [6]	fold change (FC) [7]	fold change (FC) [8]	fold change (FC) [9]	fold change (FC) [10]	fold change (FC) [11]	fold change (FC) [12]	fold change (FC) [13]	fold change (FC) [14]	fold change (FC) [15]	fold change (FC) [16]	fold change (FC) [17]	fold change (FC) [18]	fold change (FC) [19]	fold change (FC) [20]	further results
Cc1cc(C(=O)Nc2cccc(C3(Cc4nncn4C)COC3)c2)nc(C2CC2)n1	>=7.5	5	>=0.201	>=0.201	1.51	>=1.76	>=1.001	1.401	>4	1.201	>4	3.01	>1.601	1.401	>4	>4	>4	2.01	2.01	2.01	fold change (FC) [21]: 2.01; fold change (FC) [22]: 1.51; fold change (FC) [23]: >4; fold change (FC) [24]: 2.01; fold change (FC) [25]: 2.01; fold change (FC) [26]: >3; fold change (FC) [27]: <=2; fold change (FC) [28]: 1.41; fold change (FC) [29]: >1.61; fold change (FC) [30]: <=1.4; fold change (FC) [31]: 2.51; fold change (FC) [32]: 2.51; AUC (B cell): > 1.51; fold change (FC) [33]: >=5; fold change (FC) [34]: >=5; fold change (FC) [35]: 2.01; fold change (FC) [36]: 2.01; fold change (FC) [37]: 1.01
Cc1n[nH]c(C)c1-c1cc2c(c(C(F)(F)F)c1)CN(c1cccc(C3(Cc4nncn4C)COC3)c1)C2=O	>=7.5	1.01	>=0.201	0.101	1.31	1.01	>=1.001	1.201	>4	1.201	3.01	2.01	>1.601	1.401	>4	3.01	2.01	1.51	2.01	2.01	fold change (FC) [21]: 1.51; fold change (FC) [22]: 1.51; fold change (FC) [23]: >4; fold change (FC) [24]: <=2; fold change (FC) [25]: <=2; fold change (FC) [26]: <=2; fold change (FC) [27]: <=2; fold change (FC) [28]: 1.41; fold change (FC) [29]: <=1.4; fold change (FC) [30]: >1.61; fold change (FC) [31]: <=2.5; fold change (FC) [32]: <=2.5; AUC (B cell): 1.01; fold change (FC) [33]: 2.01; fold change (FC) [34]: 2.01; fold change (FC) [35]: 1.01; fold change (FC) [36]: 1.01; fold change (FC) [37]: <=1
